Publication PMC9687900, “Design, Synthesis, Kinetic Analysis and Pharmacophore-Directed Discovery of 3-Ethylaniline Hybrid Imino-Thiazolidinone as Potential Inhibitor of Carbonic Anhydrase II: An Emerging Biological Target for Treatment of Cancer” (Biomolecules, 2022)

Key:
[1] = target: carbonic anhydrase II (CA-II) (Bos taurus, UniProt P00921); experiment: Carbonic anhydrase assay (p-nitrophenyl acetate hydrolysis); type: biochemical, bovine; details: for IC50: bovine enzyme, mean ± SEM
Method: As mentioned previously, the inhibition of carbonic anhydrase was investigated with adjustments. The method relies on the fact that carbonic anhydrase hydrolyzes p-nitrophenyl acetate into yellow-colored p-nitrophenol, which is then quantified spectrophotometrically. Each well contained 120 µL of a 50 mM Tris-sulfate buffer (pH 7.6, containing 0.1 mM ZnCl2), 20 µL of an inhibitor, and 20 µL of bovine enzyme (50 U). The materials were properly mixed and incubated for 10 min at 25 degrees Celsius. The substrate p-nitrophenyl acetate was synthesized (6 mM stock using <5% acetonitrile in buffer and used fresh each time) and 40 µL was added per well to achieve a concentration of […] per well. The total volume of the reaction was 200 µL. […] Each concentration was assessed in three distinct tests. The IC50 values were calculated with GraphPad Prism 5.0 [38] and nonlinear regression (GraphPad, San Diego, CA USA). (2) Inhibition (%)=B−S/B×100
Here, B and S represent the absorbances of the blank and sample, respectively.

[2] = target: carbonic anhydrase (Bos taurus, UniProt P00921); experiment: Kinetic analysis of carbonic anhydrase inhibition (Lineweaver–Burk plots); type: biochemical, bovine
Chain of carbonic anhydrase (P00921 whole entry): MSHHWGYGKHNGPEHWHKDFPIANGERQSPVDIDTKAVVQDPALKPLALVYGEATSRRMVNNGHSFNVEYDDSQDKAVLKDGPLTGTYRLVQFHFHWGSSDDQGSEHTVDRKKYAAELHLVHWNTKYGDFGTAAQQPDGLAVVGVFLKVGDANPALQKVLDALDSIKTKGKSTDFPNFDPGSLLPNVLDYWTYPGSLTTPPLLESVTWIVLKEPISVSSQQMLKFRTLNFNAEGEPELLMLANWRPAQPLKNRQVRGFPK
Text: Based on the IC50 values, the most efficacious carbonic anhydrase inhibitor, compound 6e, was designated for kinetic investigation. Lineweaver-–Burk plots and a second plot are depicted in (Figure 3A,B). At various concentrations of the inhibitor and substrate, Lineweaver–Burk plots (plot of 1/V vs. 1/[S]) were generated to determine the kind of inhibition. […] The EI dissociation constant was shown by the second plot (Figure 3B) of the slope vs. the concentration of 6e.
To investigate the kinetic properties of compound 6e, identical experiments to those described in previous study were performed. The compound 6e was selected based on its IC50 value at various concentrations (0.00, 0.78, 1.55, and 3.11 µM, respectively), whereas the substrate concentrations (p-nitrophenyl acetate) were varied from (2, 1, 0.5, 0.25 and 0.125 mM). Other experimental settings mirrored those mentioned in the section under “Carbonic anhydrase assay”. The maximum starting velocity was estimated using the first linear section of absorbance up to 10 min at 1 min intervals. To evaluate the kind of enzyme inhibition, Lineweaver–Burk plots depicting the inverse of velocities (1/V) vs. the inverse of substrate concentration (1/[S] mM^−1) were utilized. […] Version 11 of Microsoft Excel was used to create graphs.

Chain of carbonic anhydrase II (CA-II) (P00921 whole entry): as above

SMILES	IC50 [1] [µM]	melting point [°C]	kind of inhibition ([2]; Lineweaver–Burk plots)	Ki ([2]; from slope vs. concentration of 6e, substrate p-nitrophenyl acetate, read-out: Ki (EI dissociation constant)) [µM]	activity reduced, fold, in comparison to the inhibitory value of derivative 6g ([1]; relative to 6g)
CCOC(=O)/C=C1\S/C(=N\C(=O)c2ccccc2Br)N(c2cccc(CC)c2)C1=O [Compound 6c]	60.1 ± 1.92	235 to 237			
CCOC(=O)/C=C1\S/C(=N\C(=O)c2cccc(C)c2)N(c2cccc(CC)c2)C1=O [Compound 6e]	1.54 ± 0.016	235 to 237	competitive mechanism	2.2	
CCOC(=O)/C=C1\S/C(=N\C(=O)c2ccccc2)N(c2cccc(CC)c2)C1=O [Compound 6f]	9.52 ± 1.08	235 to 237			
CCOC(=O)/C=C1\S/C(=N\C(=O)c2cccc(Cl)c2)N(c2cccc(CC)c2)C1=O [Compound 6g]	1.78 ± 0.095	235 to 237			
CCOC(=O)/C=C1\S/C(=N\C(=O)c2ccccc2F)N(c2cccc(CC)c2)C1=O [Compound 6h]	11 ± 1.28	235 to 237			
CCOC(=O)/C=C1\S/C(=N\C(=O)c2ccccc2Cl)N(c2cccc(CC)c2)C1=O [Compound 6i]	5.03 ± 0.659	235 to 237			approximately 2.9 fold
CCOC(=O)/C=C1\S/C(=N\C(=O)c2ccc(F)cc2)N(c2cccc(CC)c2)C1=O [Compound 6j]	4.45 ± 0.329	235 to 237			

Continued by falling IC50 [1], values first:

IC50 [1] [µM]	melting point [°C]	kind of inhibition ([2]; Lineweaver–Burk plots)	Ki ([2]; from slope vs. concentration of 6e, substrate p-nitrophenyl acetate, read-out: Ki (EI dissociation constant)) [µM]	activity reduced, fold, in comparison to the inhibitory value of derivative 6g ([1]; relative to 6g)	SMILES
67.5 ± 2.71	235 to 237				CCOC(=O)/C=C1\S/C(=N\C(=O)c2ccc(Cl)cc2Cl)N(c2cccc(CC)c2)C1=O [Compound 6b]
6.5 ± 0.854	235 to 237				CCOC(=O)/C=C1\S/C(=N\C(=O)c2ccc(C)cc2)N(c2cccc(CC)c2)C1=O [Compound 6d]
1.66 ± 0.095	235 to 237				CCOC(=O)C=C1SC(=NC(=O)c2ccccc2C)N(c2cccc(CC)c2)C1=O [Compound 6a]
